# Test results: patent US20160058743A1, “METHODS FOR TREATING SENSORIMOTOR IMPAIRMENTS ASSOCIATED WITH CERTAIN TYPES OF STROKE USING AMINOPYRIDINES” (ACORDA THERAPEUTICS, INC., priority 2013, published 2016)
# “And” between values parts separate entries of the source, which are not always exact repeats. Identical values can stand only once. “Also recorded” adds a separate entry of the source.
# System: rats with middle cerebral artery occlusion (MCAO)
# Assay: Forelimb placing test after MCAO
# Assay type: in vivo, Sprague Dawley rats
# Conditions: for Forelimb Placing Total Score: 0=normal, 12=maximally impaired
# Text: In particular, the MCAO model in Sprague Dawley rats that was utilized in the experiments presented below mimics the conditions in human ischemic stroke. In this model, focal cerebral infarcts were made by permanent occlusion of the proximal right middle cerebral artery (MCA) using a modification of the method of Tamura et al. (No To Shinkei 1986; 38:747-51). Briefly, the temporalis muscle was bisected and reflected through an incision made midway between the eye and the ear canal. The proximal MCA was exposed through a subtemporal craniectomy without removing the zygomatic arch and without transecting the facial nerve.
# In this experiment, Sprague Dawley rats were anesthetized, subjected to a surgery resulting in middle cerebral artery occlusion (MCAO), treated with and without 4-aminopyridine and behavioral assessments were performed as described below. Treatment was initiated at 4 weeks after stroke.
# Dosing and Treatment: Rats were treated in accordance with the dosing schedule shown in Tables 2A, 2B, 3 and FIG. 2, with each Phase being a two week period of time. A solution of 4-AP was used in this experiment. Dosing was started at 4 weeks after ischemic event. 4-aminopyridine was dissolved in water for injection (WFI, Cellgro) and sterile filtered. Final concentrations of 0.315 mg/mL or 1.0 mg/mL of 4-aminopyridine were delivered at 2 mL/kg by gastric gavage, resulting in final doses of 0.63 mg/kg and 2 mg/kg respectively. Vehicle control treatment was WFI delivered at 2 mL/kg by gastric gavage. This study was divided into three treatment phases (1-3) with each randomized cohort of animals receiving a different dose level during each of the treatment phases. Starting on day 30 after MCAO (Day 30, start of phase 1), the animals received gavage dosing of solutions (2 mL/kg) approximately 12 hours apart, for a total of five doses. The same schedule was repeated with different treatment on Day 44 and Day 58 for phase 2 and 3 of the study, respectively. Animals were not treated during the 10 days between phases (washout period).
# Treatment groups: Dosing was started 4 weeks after MCAO surgery. During these 4 weeks, weekly behavioral assessments, as defined below, were performed. Two dose levels of 4-AP plus vehicle control were assessed, with treatment starting at 4 weeks after ischemic event. All dosing was via gastric gavage, volume not to exceed 2 mL/kg. Animals were given the first dose and behavioral assessments were performed starting 60 minutes after dosing. Animals then received the second dose that day at the appropriate time and b.i.d (preferably every 12 hours) thereafter for 2 more days (3 total days of dosing, 5 total doses). One hour after the 5th dose, animals were subjected to behavioral assessments as defined below. Following the final behavioral assessment, drug was withdrawn for 10 or 11 days, behavior was re-assessed, and then animals were re-challenged with a cross-over treatment (Phase 2 of Table 2B) as described in Tables 2A, 2B and 3, followed by the same behavioral testing and dosing regimen. This cross-over was repeated one more time as well (Phase 3 of Table 2B) (see FIG. 2).
# Behavioral test details: Behavioral evaluations were done by evaluators blinded to treatment assignment. Blinded assessments of sensorimotor function were performed just prior to MCAO surgery, 24 hours after MCAO surgery and weekly thereafter until the first phase of dosing using limb placing and body swing behavioral tests. As described above, behavioral assessments were timed exactly with dosing times. Animals were tested one hour after the 1st and 5th doses of each phase (i.e., Days 30 and 32 of the first phase, Days 44 and 46 of the second phase; and Days 58 and 60 of the third phase); animals were also tested during the washout periods on Days 42 and 56. Animals were given the first dose, behavioral assessments were performed starting 60 minutes later, and blood was collected 90 minutes after dosing. […]
smiles,measurement,setting,value
"Nc1ccncc1 [4-AP, 4-aminopyridine]",Effect on forelimb function (forelimb placing test),"Example 2, low (0.63 mg/kg) or high (2 mg/kg) dose b.i.d. p.o., started 4 weeks post MCAO, dose-responsive, reversible",effective to improve forelimb function; also recorded: significant improvement
same,Forelimb Placing Total Score,"Group 2, D 30 post-MCAO, Low 4-AP 0.63 mg/kg b.i.d. p.o., 1 h after 1st dose, group Mean, N=15",4.20
same,Forelimb Placing Total Score,"Group 2, D 58 post-MCAO, High 4-AP 2.0 mg/kg b.i.d. p.o., 1 h after 1st dose, group Mean, N=15",1.90
same,Forelimb Placing Total Score,"Group 3, D 44 post-MCAO, High 4-AP 2.0 mg/kg b.i.d. p.o., 1 h after 1st dose, group Mean, N=15",2.67
same,Forelimb Placing Total Score,"Group 3, D 44 post-MCAO, High 4-AP 2.0 mg/kg b.i.d. p.o., 1 h after 1st dose, individual rats",4.00 (3×) and 1.00 and 2.50 and 3.00 (3×) and 4.50 (2×) and 0.00 (3×) and 5.00 and 1.50
same,Forelimb Placing Total Score,"Group 3, D 46 post-MCAO, High 4-AP 2.0 mg/kg b.i.d. p.o., 1 h after 5th dose, group Mean, N=15",1.33
same,Forelimb Placing Total Score,"Group 3, D 46 post-MCAO, High 4-AP 2.0 mg/kg b.i.d. p.o., 1 h after 5th dose, individual rats",3.00 (3×) and 0.00 (5×) and 2.00 and 1.50 (3×) and 1.00 (2×) and 2.50
same,Forelimb Placing Total Score,"Group 3, D 58 post-MCAO, Low 4-AP 0.63 mg/kg b.i.d. p.o., 1 h after 1st dose, group Mean, N=15",2.00
same,Forelimb Placing Total Score,"Group 3, D 58 post-MCAO, Low 4-AP 0.63 mg/kg b.i.d. p.o., 1 h after 1st dose, individual rats",3.00 (4×) and 0.50 and 2.00 and 3.50 and 1.50 (2×) and 2.50 (2×) and 4.00 and 0.00 (3×)
same,Forelimb Placing Total Score,"Group 3, D 60 post-MCAO, Low 4-AP 0.63 mg/kg b.i.d. p.o., 1 h after 5th dose, group Mean, N=15",1.80
same,Forelimb Placing Total Score,"Group 3, D 60 post-MCAO, Low 4-AP 0.63 mg/kg b.i.d. p.o., 1 h after 5th dose, individual rats",3.00 (4×) and 1.00 (2×) and 2.00 (2×) and 3.50 and 0.50 and 2.50 (2×) and 0.00 (3×)
